Source: PubChem BioAssay AID248 (DTP/NCI, 2004)
Where “and” joins values, the source holds several entries; their conditions need not be identical. Identical values can stand only once. Toxic doses and inconclusive results are not listed. Cut-off read from the data, not from the text of the source: active = T/C of 150% or more; inactive = T/C below 125%.

Tested on: L1210 leukemia ip in BDF1 mice, survival T/C
Experiment: NCI In Vivo Anticancer Drug Screen. Data for tumor model L1210 Leukemia (intraperitoneal) in B6D2F1 (BDF1) mice
Details: endpoint: mean survival time, higher = longer survival
In short: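 Each compound was tested against a transplantable tumor grown in mice. The endpoint was survival, with treated animals benchmarked against vehicle controls as a simple ratio.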

[1] = dose: 87.5 mg/kg/injection, schedule: Q04DX003 (ip), vehicle: saline with Tween-80
[2] = dose: 175.0 mg/kg/injection, schedule: Q04DX003 (ip), vehicle: saline with Tween-80
[3] = dose: 350.0 mg/kg/injection, schedule: Q04DX003 (ip), vehicle: saline with Tween-80
[4] = dose: 100.0 mg/kg/injection, schedule: Q04DX003 (ip), vehicle: Klucel (hydroxypropylcellulose) (HPC)
[5] = dose: 200.0 mg/kg/injection, schedule: Q04DX003 (ip), vehicle: Klucel (hydroxypropylcellulose) (HPC)
[6] = dose: 400.0 mg/kg/injection, schedule: Q04DX003 (ip), vehicle: Klucel (hydroxypropylcellulose) (HPC)
[7] = dose: 100.0 mg/kg/injection, schedule: Q01DX009 (ip), vehicle: water
[8] = dose: 100.0 mg/kg/injection, schedule: Q04DX003 (ip), vehicle: water
[9] = dose: 200.0 mg/kg/injection, schedule: Q01DX009 (ip), vehicle: water
[10] = dose: 200.0 mg/kg/injection, schedule: Q04DX003 (ip), vehicle: water
[11] = dose: 100.0 mg/kg/injection, schedule: Q01DX009 (ip), vehicle: saline
[12] = dose: 200.0 mg/kg/injection, schedule: Q01DX009 (ip), vehicle: saline
[13] = dose: 100.0 mg/kg/injection, schedule: Q01DX009 (ip), vehicle: Klucel (hydroxypropylcellulose) (HPC)
[14] = dose: 200.0 mg/kg/injection, schedule: Q01DX009 (ip), vehicle: Klucel (hydroxypropylcellulose) (HPC)
[15] = dose: 400.0 mg/kg/injection, schedule: Q01DX009 (ip), vehicle: Klucel (hydroxypropylcellulose) (HPC)
[16] = dose: 100.0 mg/kg/injection, schedule: Q01DX001 (ip), vehicle: saline with Tween-80
[17] = dose: 100.0 mg/kg/injection, schedule: Q01DX001 (ip), vehicle: carboxymethylcellulose (CMC)
[18] = dose: 200.0 mg/kg/injection, schedule: Q01DX001 (ip), vehicle: carboxymethylcellulose (CMC)
[19] = dose: 100.0 mg/kg/injection, schedule: Q01DX001 (ip), vehicle: saline
[20] = dose: 75.0 mg/kg/injection, schedule: Q01DX001 (ip), vehicle: other
[21] = dose: 50.0 mg/kg/injection, schedule: Q01DX009 (ip), vehicle: Klucel (hydroxypropylcellulose) (HPC)

Measured: T/C

CCOc1ccccc1/C=C1\C=Nc2ccccc21
inactive: dose: 50.0 mg/kg/injection, schedule: Q01DX009 (ip), vehicle: carboxymethylcellulose (CMC) 92 % of control and 101 % of control | dose: 50.0 mg/kg/injection, schedule: Q04DX003 (ip), vehicle: carboxymethylcellulose (CMC) 96 % of control | dose: 100.0 mg/kg/injection, schedule: Q01DX009 (ip), vehicle: carboxymethylcellulose (CMC) 92 % of control and 93 % of control | dose: 100.0 mg/kg/injection, schedule: Q04DX002 (ip), vehicle: carboxymethylcellulose (CMC) 96 % of control and 99 % of control | dose: 100.0 mg/kg/injection, schedule: Q04DX003 (ip), vehicle: carboxymethylcellulose (CMC) 98 % of control | dose: 200.0 mg/kg/injection, schedule: Q01DX009 (ip), vehicle: carboxymethylcellulose (CMC) 89 % of control and 90 % of control | dose: 200.0 mg/kg/injection, schedule: Q04DX002 (ip), vehicle: carboxymethylcellulose (CMC) 89 % of control and 91 % of control | dose: 200.0 mg/kg/injection, schedule: Q04DX003 (ip), vehicle: carboxymethylcellulose (CMC) 100 % of control | dose: 400.0 mg/kg/injection, schedule: Q04DX002 (ip), vehicle: carboxymethylcellulose (CMC) 89 % of control

CC(C)(C)SC1CC(=O)OC1=O (configuration not stated)
inactive: [1] 102 % of control | [2] 106 % of control | [3] 109 % of control

CCNC(=O)C1C2CC3OC(=O)C1C3C2 (configuration not stated)
inactive: dose: 100.0 mg/kg/injection, schedule: Q04DX003 (ip), vehicle: saline with Tween-80 90 % of control | dose: 200.0 mg/kg/injection, schedule: Q04DX003 (ip), vehicle: saline with Tween-80 95 % of control | dose: 400.0 mg/kg/injection, schedule: Q04DX003 (ip), vehicle: saline with Tween-80 95 % of control

CCCCC(CC)CNC(C)=O (configuration not stated)
inactive: [4] 99 % of control | [5] 95 % of control

O=C1CNc2ccccc2N1
inactive: [4] 103 % of control | [5] 92 % of control | [6] 92 % of control

O=C(Nc1ccc(NC2=NCCN2)cc1)c1cc(C(=O)Nc2ccc(NC3=NCCN3)cc2)cc([N+](=O)[O-])c1
inactive: dose: 1.87 mg/kg/injection, schedule: Q01DX Z (ip), vehicle: saline 113 % of control | dose: 3.75 mg/kg/injection, schedule: Q01DX Z (ip), vehicle: saline 109 % of control | dose: 7.5 mg/kg/injection, schedule: Q01DX Z (ip), vehicle: saline 115 % of control | dose: 15.0 mg/kg/injection, schedule: Q01DX Z (ip), vehicle: methylcellulose (MC) 94 % of control | dose: 15.0 mg/kg/injection, schedule: Q01DX Z (ip), vehicle: saline 105 % of control

[CH3][Sb]([CH3])([CH3])([O]C(=O)CBr)[O]C(=O)CBr
inactive: dose: 12.5 mg/kg/injection, schedule: Q04DX003 (ip), vehicle: saline with Tween-80 102 % of control | dose: 25.0 mg/kg/injection, schedule: Q04DX003 (ip), vehicle: saline with Tween-80 87 % of control | dose: 50.0 mg/kg/injection, schedule: Q04DX003 (ip), vehicle: saline with Tween-80 91 % of control

Cc1ccc(CNCC(=O)O)cc1
inactive: dose: 50.0 mg/kg/injection, schedule: Q01DX009 (ip), vehicle: water 102 % of control | [7] 98 % of control | dose: 100.0 mg/kg/injection, schedule: Q01DX Z (ip), vehicle: saline 96 % of control | [8] 95 % of control | [9] 95 % of control | dose: 200.0 mg/kg/injection, schedule: Q01DX Z (ip), vehicle: saline 104 % of control | [10] 88 % of control

CC(C)(C)c1ccc(Sc2cnccc2C(C)(C)C)cc1
inactive: [1] 97 % of control | [2] 102 % of control | [3] 94 % of control

CC1C(=O)OC2CC[N+]3(C)CC=C(COC(=O)C(C)(O)C1(C)O)C23 (configuration not stated)
inactive: dose: 50.0 mg/kg/injection, schedule: Q01DX009 (ip), vehicle: saline 92 % of control | [11] 100 % of control | [12] 92 % of control

CCCCCCCCCCCCNC(=O)Nc1ccc(C)cc1C
inactive: [13] 98 % of control | [4] 95 % of control | [14] 94 % of control | [5] 96 % of control | [15] 96 % of control | [6] 100 % of control

CN(C)C(=O)Nc1ccc([N+](=O)[O-])cc1[N+](=O)[O-]
inactive: [16] 96 % of control | dose: 200.0 mg/kg/injection, schedule: Q01DX001 (ip), vehicle: saline with Tween-80 89 % of control | dose: 400.0 mg/kg/injection, schedule: Q01DX001 (ip), vehicle: saline with Tween-80 94 % of control | dose: 800.0 mg/kg/injection, schedule: Q04DX002 (ip), vehicle: saline with Tween-80 104 % of control and 107 % of control

CN(C)S(=O)(=O)c1ccc(CC(O)(c2ccccc2)c2ccccc2)cc1
inactive: dose: 88.8 mg/kg/injection, schedule: Q01DX001 (ip), vehicle: carboxymethylcellulose (CMC) 105 % of control and 91 % of control | [17] 98 % of control | dose: 133.0 mg/kg/injection, schedule: Q01DX001 (ip), vehicle: carboxymethylcellulose (CMC) 120 % of control and 91 % of control | [18] 96 % of control and 109 % of control | dose: 300.0 mg/kg/injection, schedule: Q01DX001 (ip), vehicle: carboxymethylcellulose (CMC) 93 % of control and 97 % of control | dose: 400.0 mg/kg/injection, schedule: Q01DX001 (ip), vehicle: carboxymethylcellulose (CMC) 104 % of control

C[N+](C)(C)c1ccc(C(=O)[O-])cc1
inactive: dose: 50.0 mg/kg/injection, schedule: Q01DX001 (ip), vehicle: saline 97 % of control | [19] 97 % of control | dose: 200.0 mg/kg/injection, schedule: Q01DX001 (ip), vehicle: saline 97 % of control | dose: 400.0 mg/kg/injection, schedule: Q01DX001 (ip), vehicle: saline 103 % of control

CC(COC(=O)c1ccccc1)NC1CCCC1 (configuration not stated)
inactive: [20] 96 % of control | dose: 150.0 mg/kg/injection, schedule: Q01DX001 (ip), vehicle: other 108 % of control | dose: 300.0 mg/kg/injection, schedule: Q01DX001 (ip), vehicle: other 107 % of control

c1ccc(-c2cnc[nH]2)cc1
inactive: dose: 50.0 mg/kg/injection, schedule: Q01DX001 (ip), vehicle: carboxymethylcellulose (CMC) 100 % of control | [17] 109 % of control | [18] 117 % of control

CCOC(=O)CC1(C)NC(=O)NC1=O (configuration not stated)
inactive: [11] 104 % of control | [12] 90 % of control | dose: 400.0 mg/kg/injection, schedule: Q01DX009 (ip), vehicle: saline 98 % of control

COC(=O)Cc1c[nH]c(=O)[nH]c1=O
inactive: [7] 102 % of control | [8] 93 % of control | [9] 98 % of control | [10] 104 % of control | dose: 400.0 mg/kg/injection, schedule: Q04DX003 (ip), vehicle: water 95 % of control

COc1ccc2cnnc(NN)c2c1
inactive: [20] 97 % of control

Cc1cc(O)c(C=O)c(C)c1O
inactive: [13] 110 % of control | [14] 117 % of control

Cc1nn(-c2ccc(Cl)cc2)c(C)c1N=O
inactive: dose: 25.0 mg/kg/injection, schedule: Q01DX001 (ip), vehicle: saline with Tween-80 98 % of control | dose: 50.0 mg/kg/injection, schedule: Q01DX001 (ip), vehicle: saline with Tween-80 95 % of control | [16] 104 % of control

COc1cc(OC)c(NC(=O)c2ccccc2Cl)cc1Cl
inactive: [13] 92 % of control | [14] 90 % of control | [15] 93 % of control

O=C(NCCCl)NC1c2ccccc2-c2ccccc21
inactive: [13] 105 % of control | [4] 96 % of control and 89 % of control | [14] 92 % of control | [5] 102 % of control | [15] 106 % of control | [6] 98 % of control and 86 % of control

COc1ccc(NCC(O)CN2CCCCC2)cc1 (configuration not stated)
inactive: [19] 94 % of control

CCCCC1CN2CCc3cc(OC)c(OC)cc3C2CC1=O (configuration not stated)
inactive: [21] 96 % of control and 97 % of control | [13] 89 % of control and 103 % of control | [14] 94 % of control and 96 % of control | [15] 97 % of control

O=C(Nc1cc(Cl)c(Oc2ccc(Cl)cc2)cc1S(=O)(=O)O)Nc1cccc(Cl)c1Cl
inactive: [21] 109 % of control | [13] 104 % of control
